# Reference: patent US9345766B2, “Combination therapies comprising anti-ERBB3 agents” (Merrimack Pharmaceuticals, Inc., priority 2012, dated 2016)
# Test system: phospho-ErbB3 (pErbB3)
# Type: cell-based
# Details: incubation 15 minutes to 24 hours
# Experimental: Cell lysates are probed for phospho-ErbB3 (pErbB3), and phospho-AKT (pAKT) by ELISA as described previously (Schoeberl et al, 2009) Inhibitor IC50 values are calculated by fitting dose-response data to a 4-parameter sigmoidal curve (GraphPad Prism®, GraphPad Software, Inc., La Jolla, Calif.).
# Model-generated dose-response curves overlay the experimental data (FIG. 7a). […] Untreated and heregulin-stimulated cells were probed for pErbB3 and pAKT and the IC50 was calculated (FIG. 7b).
# Amounts of pAKT and pErbB3 were measured by ELISA essentially as described.
substance,measurement,value
"MM-111: bispecific anti-ErbB2/anti-ErbB3 antibody, scFv HSA conjugate, amino acid sequence SEQ ID NO:1",ability to inhibit heregulin-induced ErbB3 activation relative to lapatinib,superior to lapatinib by greater than an order of magnitude
